Results taken from ChEMBL document CHEMBL5131389, “PSMA-targeted small-molecule docetaxel conjugate: Synthesis and preclinical evaluation” (Eur J Med Chem, 2022).
Several values for one entry are separate records, joined by “and”; a condition that tells them apart may be missing. Identical values can stand only once.

Tests used:
[1] = tested on: PC-3; experiment: Cytotoxicity against human PC-3 cells assessed as reduction in cell viability measured after 72 hrs by MTT assay; type: functional
[2] = Selectivity ratio of CC50 for cytotoxicity against human PC-3 cells to CC50 for cytotoxicity against human 22Rv1 cells
[3] = target: T1, Liver carboxylesterase (Sus scrofa, UniProt Q29550); experiment: Stability of the compound in porcine liver esterase assessed as compound remaining measured upto 96 hrs by LCMS based mass spectrometric analysis relative to initial amount; type: ADME; details: pig, read-out: Stability
T1 sequence (Q29550 whole entry): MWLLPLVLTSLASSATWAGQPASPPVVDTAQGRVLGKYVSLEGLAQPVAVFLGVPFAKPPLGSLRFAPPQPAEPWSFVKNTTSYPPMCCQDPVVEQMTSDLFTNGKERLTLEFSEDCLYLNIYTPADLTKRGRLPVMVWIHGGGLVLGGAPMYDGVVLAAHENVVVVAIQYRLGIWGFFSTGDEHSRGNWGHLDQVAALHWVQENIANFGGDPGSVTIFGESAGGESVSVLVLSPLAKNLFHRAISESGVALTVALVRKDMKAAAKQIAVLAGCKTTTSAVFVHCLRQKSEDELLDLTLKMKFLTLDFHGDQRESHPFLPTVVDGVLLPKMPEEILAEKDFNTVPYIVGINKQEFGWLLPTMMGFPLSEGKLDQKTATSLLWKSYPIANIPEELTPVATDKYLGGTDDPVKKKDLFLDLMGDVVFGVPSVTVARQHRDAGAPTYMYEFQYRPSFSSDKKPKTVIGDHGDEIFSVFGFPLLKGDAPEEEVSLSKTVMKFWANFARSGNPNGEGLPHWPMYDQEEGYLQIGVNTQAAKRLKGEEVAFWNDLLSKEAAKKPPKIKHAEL

[4] = Chronic toxicity in rat assessed as increase in creatinine concentration at 18.75 to 22.5 mg/kg, iv administered as pluronic F127 formulation at 4 intervals for 21 days and observed 3 weeks post last injection relative to control; type: organism-based; details: in vivo, 2544 h, dose 18.75-22.5 mg/kg, time 106 day
[5] = tested on: CWR22R; experiment: Antitumor activity against human 22Rv1 cells xenografted in Balb/c nude mouse assessed as tumor growth inhibition at 10 mg/kg, ip administered once in two days for three times and measured 4 days after the end of treatment relative to control; type: functional; details: 22Rv1, 240 h, time 10 day, read-out: TGI
[6] = tested on: CWR22R; experiment: Antitumor activity against human 22Rv1 cells xenografted in Balb/c nude mouse assessed as tumor growth inhibition at 10 mg/kg, ip administered once in two days for three times and measured 7 days after the end of treatment relative to control; type: functional; details: 22Rv1, 312 h, time 13 day, read-out: TGI
[7] = Toxicity in Balb/c nude mouse xenografted with human 22Rv1 cells assessed as animal death at 20 mg/kg, ip measured upto 30 days; type: organism-based, CWR22R; details: in vivo, 720 h, time < 30 day
[8] = tested on: DU-145; experiment: Antitumor activity against human DU-145 cells xenografted in BALB/c nude mouse assessed as reduction in tumor growth index at 30 mg/kg, ip measured upto 30 days; type: functional; parameters: scale not given: the % may be the effect or the level left; details: time <= 30 day
[9] = Chronic toxicity in Soviet Chinchilla rabbit assessed as decrease in body weight at 10.17 mg/kg, iv administered as pluronic F127 formulation at 4 intervals for 21 days and observed upto day 49; type: organism-based, Oryctolagus cuniculus; details: in vivo, 1176 h, time < 49 day
[10] = Acute toxicity in Wistar rat assessed as animal death at 15 to 279 mg/kg, iv administered for 14 days as pluronic F127 formulation and measured after 3 days; type: organism-based; details: in vivo, 408 h, dose 15-279 mg/kg, time 17 day
[11] = Acute toxicity in Wistar rat assessed as coprostasis at 15 to 279 mg/kg, iv administered as pluronic F127 formulation and measured for 14 days; type: organism-based; details: in vivo, 336 h, dose 15-279 mg/kg, time 14 day
[12] = Acute toxicity in Wistar rat assessed as liver damage at 15 to 279 mg/kg, iv administered as pluronic F127 formulation and measured for 14 days; type: organism-based; details: in vivo, 336 h, dose 15-279 mg/kg, time 14 day
[13] = Acute toxicity in ICR mouse assessed as maximum tolerated dose administered intravenously as pluronic F127 formulation and measured for 14 days; details: in vivo, route iv, time 14 day
[14] = Acute toxicity in Wistar rat assessed as maximum tolerated dose administered intravenously as pluronic F127 formulation and measured for 14 days; details: in vivo, route iv, time 14 day
[15] = Acute toxicity in Wistar rat assessed as lethal dose administered intravenously as pluronic F127 formulation and measured for 14 days; details: in vivo, route iv, time 14 day
[16] = AUC (0 to t) in Soviet Chinchilla rabbit at 8.1 mg/kg, iv administered as pluronic F127 formulation measured upto 72 hrs by high-performance liquid chromatography tandem mass spectrometric analysis; type: ADME, organism-based, Oryctolagus cuniculus; parameters: dose 8.1 mg/kg, time < 72 hrs, route iv; details: in vivo
[17] = Ratio of AUC (t to infinity) to AUC (0 to infinity) in Albino Wistar rat at 15 mg/kg, iv administered as pluronic F127 formulation measured upto 72 hrs by high-performance liquid chromatography tandem mass spectrometric analysis; type: ADME, organism-based; details: in vivo
[18] = Volume of distribution in Soviet Chinchilla rabbit at 8.1 mg/kg, iv administered as pluronic F127 formulation measured upto 72 hrs by high-performance liquid chromatography tandem mass spectrometric analysis; type: ADME, organism-based, Oryctolagus cuniculus; details: in vivo
[19] = Subchronic toxicity in Wistar rat assessed as cumulative effect of drug at 58 mg/kg, iv administered as pluronic F127 formulation daily for 28 days; type: organism-based; details: in vivo, 672 h, time 28 day
[20] = Subchronic toxicity in Wistar rat assessed as tolerance at 58 mg/kg, iv administered as pluronic F127 formulation daily for 28 days; type: organism-based; details: in vivo, 672 h, time 28 day
[21] = Chronic toxicity in rat assessed as reduction in grooming frequency at 22.5 mg/kg, iv administered as pluronic F127 formulation at 4 intervals for 21 days and observed 3 weeks post last injection; type: organism-based; details: in vivo, 2544 h, time 106 day
[22] = Chronic toxicity in rat assessed as neurological disorder at 22.5 mg/kg, iv administered as pluronic F127 formulation at 4 intervals for 21 days and observed 3 weeks post last injection; type: organism-based; details: in vivo, 2544 h, time 106 day
[23] = Chronic toxicity in rat assessed as increase in relative spleen mass at 18.75 mg/kg, iv administered as pluronic F127 formulation at 4 intervals for 21 days and observed 3 weeks post last injection relative to control; type: organism-based; details: in vivo, 2544 h, time 106 day
[24] = Chronic toxicity in rat assessed as increase in relative mass of stomach administered intravenously as pluronic F127 formulation at 4 intervals for 21 days and observed 3 weeks post last injection relative to control; type: tissue-based; details: in vivo, iv, 2544 h, time 106 day
[25] = Chronic toxicity in rat assessed as increase in relative mass of adrenal gland administered intravenously as pluronic F127 formulation at 4 intervals for 21 days and observed 3 weeks post last injection relative to control; type: tissue-based; details: in vivo, iv, 2544 h, time 106 day
[26] = Chronic toxicity in rat assessed as reduction in body weight at 15 to 18.75 mg/kg, iv administered as pluronic F127 formulation at 4 intervals for 21 days and observed on 77 th day; type: organism-based; details: in vivo, 1848 h, dose 15-18.75 mg/kg, time 77 day
[27] = Chronic toxicity in Soviet Chinchilla rabbit assessed as external signs of intoxication administered intravenously as pluronic F127 formulation at 4 intervals for 21 days and observed 3 weeks post last injection; parameters: species or system Oryctolagus cuniculus; details: in vivo, iv, 2544 h, time 106 day

Question: For `CC(=O)O[C@@]12CO[C@@H]1C[C@H](O)[C@@]1(C)C(=O)[C@H](O)C3=C(C)[C@@H](OC(=O)[C@H](OC(=O)CCCc4cn(CCCNC(=O)[C@H](Cc5ccc(O)cc5)NC(=O)[C@H](Cc5ccccc5)NC(=O)CCC(=O)NCCCCCC(=O)N(CCCC[C@H](NC(=O)N[C@@H](CCC(=O)O)C(=O)O)C(=O)O)Cc5cccc(Cl)c5)nn4)[C@@H](NC(=O)OC(C)(C)C)c4ccccc4)C[C@@](O)([C@@H](OC(=O)c4ccccc4)[C@H]21)C3(C)C`, which CC50 [1] is on record?
Answer: 2.8 nM

Question: What about the Selectivity ratio [2] of the same compound?
Answer: 1

Question: What about the remaining at 96 h [3] of the same compound?
Answer: 60%

Question: And the Activity [4]?
Answer: Toxic

Question: And the inhibition in vivo at 10 mg/kg [5]?
Answer: 88%

Question: And the inhibition in vivo at 10 mg/kg [6]?
Answer: 87%

Question: What about the Activity [7] of the same compound?
Answer: Non-Toxic

Question: And the Activity [8]?
Answer: 190.1%

Question: And the Activity [9]?
Answer: Toxic

Question: And the Activity [10]?
Answer: Toxic

Question: What about the Activity [11] of the same compound?
Answer: Toxic

Question: What about the Activity [12] of the same compound?
Answer: Toxic

Question: What about the MTD at 336 h [13] of the same compound?
Answer: 183 mg/kg

Question: What about the MTD at 336 h [14] of the same compound?
Answer: 15 mg/kg

Question: And the LD50 at 336 h [15]?
Answer: 58 mg/kg and 30 µmol/kg

Question: And the AUC(0-t) at 72 h [16]?
Answer: 253 µg·h/mL

Question: And the “Ratio AUC” value [17]?
Answer: 11%

Question: And the Vd [18]?
Answer: 0.332 L/kg

Question: And the Activity [19]?
Answer: Toxic

Question: And the Activity [20]?
Answer: Toxic

Question: What about the Activity [21] of the same compound?
Answer: Toxic

Question: And the Activity [22]?
Answer: Toxic

Question: What about the Activity [23] of the same compound?
Answer: Toxic

Question: And the Activity [24]?
Answer: Toxic

Question: What about the Activity [25] of the same compound?
Answer: Toxic

Question: And the Activity [26]?
Answer: Toxic

Question: What about the Activity [27] of the same compound?
Answer: Non-Toxic
